Results from patent publication US4355026A, “4-Demethoxy,11-deoxy anthracycline derivatives” (priority 1980, dated 1982).
Values after ≈ are worked out from the molar mass of the structure shown. Like-named read-outs stand apart in the source and are kept apart here.

Tests used:
[1] = test system: L1210 leukemia cells; experiment: Inhibitory effect on growth of L1210 cultivated leukemic cells of mice; type: cell-based; conditions: Mus musculus
Description: (§1) A. Inhibitory Effect on Growth, DNA Synthesis and RNA Synthesis of L1210 Cultivated Leukemic Cells of Mice
For example, L1210 cells were inoculated in a concentration of 5×10^4 cells/ml in an RPMI 1640 culture medium (Roswell Park Memorial Institute 1640) containing 20% calf serum and, simultaneously, representative compounds of the present invention were added in a concentration of 0.1 and 0.5 μg/ml. The cells were cultivated in a CO2 generator at 37° C. The 50% growth inhibitory concentration with respect to a control group was then determined.

[2] = test system: L1210 leukemia cells; experiment: Antitumor activity on CDFI mouse leukemia induced by mouse L1210 leukemia cells; type: in vivo, CDFI mice; set-up: key to Toxicity: *: Toxicity-; conditions: intraperitoneal, 10 consecutive days
Description: B. Antitumor Activity on CDFI Mouse Leukemia Induced by Mouse L1210 Leukemia cells
L1210 leukemia cells of mice were intraperitoneally transplanted in an amount of 1×10^5 cells/mouse in CDFI mice. Starting 24 hours after the transplantation, each of the test compounds was intraperitoneally administered to the mice for 10 consecutive days. the survival rate (T/C, %) was calculated in comparison with a control group (to which physiological saline was administered).

[3] = test system: L1210 leukemia cells, DNA synthesis; experiment: Inhibition of DNA synthesis (14C-thymidine incorporation) of L1210 cultivated leukemic cells; type: cell-based; conditions: Mus musculus, L1210, 1 h; for IC50: read-out: IC50 DNA synthesis; for IC90: read-out: IC90 DNA synthesis
Description: as §1
(§2) Separately, the above L1210 cultivated cells were suspended in a concentration of 5×10^5 cells/ml in an RPMI 1640 medium containing 10% calf serum and cultivated for 1 to 2 hours in a CO2 incubator at 37° C. Then, representative test compounds were added in various concentrations, and 15 minutes later, ^14 C-uridine (0.05 μCi/ml) or ^14 C-thymidine (0.05 μCi/ml) were added. The cells were incubated at 37° C. for 60 minutes. A 10% aqueous trichloroacetic acid solution was added to the incubation medium to stop the reaction and simultaneously precipitate acid-insoluble matter. The acid-insoluble matter was washed three times with a 5 to 10% aqueous solution of trichloroacetic acid and then dissolved in formic acid. The radioactivity of the acid-insoluble matter was measured. From the ratio of incorporated radiation to that of a control group, the concentrations which inhibited radiation by 10%, 50% and 90% respectively were measured.

[4] = test system: L1210 leukemia cells, RNA synthesis; experiment: Inhibition of RNA synthesis (14C-uridine incorporation) of L1210 cultivated leukemic cells; type: cell-based; conditions: Mus musculus, L1210, 1 h; for IC50: read-out: IC50 RNA synthesis; for IC90: read-out: IC90 RNA synthesis
Description: as §1, §2

[5] = test system: Microccus lysodeikticus IFQ 3333; experiment: MIC on nutrient agar medium; type: cell-based
Source text: (§3) The compounds of formula I provided by the present invention are also characterized by their antimicrobial activity. Table 3 summarizes the minimum inhibitory concentrations (MIC) of representative compounds of the present invention against various microorganisms on a nutrient agar medium.

[6] = test system: Bacillus subtilis PCI 219; experiment: MIC on nutrient agar medium; type: cell-based; conditions: PCI219
Source text: as §3

[7] = test system: Staphylococcus aureus smith; experiment: MIC on nutrient agar medium; type: cell-based
Source text: as §3

[8] = test system: Staphylococcus aureus FDA 209; experiment: MIC on nutrient agar medium; type: cell-based; conditions: FDA209
Source text: as §3

[9] = test system: Candida albicans 3147; experiment: MIC on nutrient agar medium; type: cell-based
Source text: as §3

[10] = test system: Mycobacterium smegmatis ATCC 607; experiment: MIC on nutrient agar medium; type: cell-based; conditions: Mycolicibacterium smegmatis, ATCC607
Source text: as §3

[11] = test system: Salmonella typhi T - 63; experiment: MIC on nutrient agar medium; type: cell-based; conditions: Salmonella enterica
Source text: as §3

[12] = test system: Klebsiella pneumonia PCI 602; experiment: MIC on nutrient agar medium; type: cell-based; conditions: Klebsiella pneumoniae, PCI602
Source text: as §3

[13] = test system: Sarcina lutea PCI 1001; experiment: MIC on nutrient agar medium; type: cell-based; conditions: Micrococcus luteus, PCI1001
Source text: as §3

[14] = test system: Bacillus cereus ATCC 10702; experiment: MIC on nutrient agar medium; type: cell-based; conditions: ATCC10702
Source text: as §3

[15] = test system: Microccus flavus FDA 16; experiment: MIC on nutrient agar medium; type: cell-based
Source text: as §3

[16] = test system: Escherichia coli NIHJ; experiment: MIC on nutrient agar medium; type: cell-based
Source text: as §3

[17] = test system: Bacillus subtilis NRRB- 558; experiment: MIC on nutrient agar medium; type: cell-based; conditions: NRRB558
Source text: as §3

[18] = test system: Shigella flexneri 46 JS 11811; experiment: MIC on nutrient agar medium; type: cell-based; conditions: 46JS11811
Source text: as §3

[19] = test system: Pseudomonas aeruginosa A3; experiment: MIC on nutrient agar medium; type: cell-based
Source text: as §3

[20] = test system: Bacillus megatherium APF; experiment: MIC on nutrient agar medium; type: cell-based
Source text: as §3

[21] = test system: Corynebacterium bovis 1810; experiment: MIC on nutrient agar medium; type: cell-based
Source text: as §3

[22] = L1210, 24 h, read-out: IC50 growth, 1 day later
[23] = L1210, 48 h, read-out: IC50 growth, 2 days later
[24] = L1210, 24 h, 1 day later, RPMI 1640, 20% calf serum, 37° C., read-out: IC50 growth, 1 day later
[25] = L1210, 48 h, 2 days later, RPMI 1640, 20% calf serum, 37° C., read-out: IC50 growth, 2 days later
[26] = 14C-thymidine, 60 minutes, 37° C.
[27] = 90% inhibition, 14C-thymidine, 60 minutes, 37° C.
[28] = 14C-uridine, 60 minutes, 37° C.
[29] = 90% inhibition, 14C-uridine, 60 minutes, 37° C.

Row | Structure (SMILES) | IC50 [1, 22] [µg/mL] | IC50 [1, 23] [µg/mL] | Survival rate (T/C, %) ([2]; 0.15 mg/kg/day) [%] | Survival rate (T/C, %) ([2]; 0.3 mg/kg/day) [%] | Survival rate (T/C, %) ([2]; 0.6 mg/kg/day) [%] | Survival rate (T/C, %) ([2]; 1.25 mg/kg/day) [%] | Survival rate (T/C, %) ([2]; 2.5 mg/kg/day) [%] | IC50 [3] [µg/mL] | IC90 [3] [µg/mL] | IC50 [4] [µg/mL] | IC90 [4] [µg/mL] | IC50 [1, 24] [µg/mL] | IC50 [1, 25] [µg/mL] | IC50 [3, 26] [µg/mL] | IC90 [3, 27] [µg/mL] | IC50 [4, 28] [µg/mL] | IC90 [4, 29] [µg/mL] | also measured
1 | COc1cccc2c1C(=O)c1c(O)c3c(c(O)c1C2=O)C[C@@](O)(C(=O)CO)C[C@@H]3O[C@H]1C[C@H](N)[C@H](O)[C@H](C)O1 [Adriamycin] | 0.05 (≈ 0.092 µM) | 0.03 (≈ 0.0552 µM) | 130 | 147 | 239 | 272 | 351 | 1.65 (≈ 3.04 µM) | 4.5 (≈ 8.28 µM) | 0.68 (≈ 1.25 µM) | 6.5 (≈ 12 µM) |  |  |  |  |  |  | Survival rate (T/C, %) ([2]; 5 mg/kg/day): 189%; Toxicity ([2]; 5 mg/kg/day): *
2 | C[C@@H]1O[C@@H](O[C@@H]2C[C@@](O)(C(=O)CO)Cc3cc4c(c(O)c32)C(=O)c2ccccc2C4=O)C[C@H](N)[C@@H]1O (single isomer, unassigned; isomer 4) [4-Demethoxy-11-deoxy-adriamycin (7R,9R,1'α)isomer, 4-Demethoxy-11-deoxyadriamycin] |  |  |  |  |  |  |  |  |  |  |  | 72.5 (≈ 146 µM) | 72.5 (≈ 146 µM) | > 10 | > 10 | > 10 | > 10 | MIC [5]: > 100 µg/mL; MIC [6]: > 100 µg/mL; MIC [7]: > 100 µg/mL; MIC [8]: > 100 µg/mL; MIC [9]: > 100 µg/mL; MIC [10]: 100 µg/mL (≈ 201 µM); MIC [11]: > 100 µg/mL; MIC [12]: > 100 µg/mL; MIC [13]: > 100 µg/mL; MIC [14]: > 100 µg/mL; MIC [15]: > 100 µg/mL; MIC [16]: > 100 µg/mL; MIC [17]: > 100 µg/mL; MIC [18]: > 100 µg/mL; MIC [19]: > 100 µg/mL; MIC [20]: > 100 µg/mL; MIC [21]: > 100 µg/mL
3 | COc1cccc2c1C(=O)c1c(cc3c(c1O)[C@@H](O[C@H]1C[C@H](N)[C@H](O)[C@H](C)O1)C[C@](O)(C(C)=O)C3)C2=O [11-deoxy-daunomycin, reference compound] |  |  |  |  |  |  |  |  |  |  |  | 0.05 (≈ 0.0977 µM) |  |  |  |  |  | 
4 | CC(=O)[C@]1(O)Cc2cc3c(c(O)c2[C@@H](O[C@@H]2C[C@H](N)[C@H](O)[C@H](C)O2)C1)C(=O)c1ccccc1C3=O (single isomer, unassigned; isomer 4) [4-Demethoxy-11-deoxy-daunomycin (7S,9S,1'β)isomer, 4-Demethoxy-11-deoxydaunomycin] |  |  |  |  |  |  |  |  |  |  |  | 1.4 (≈ 2.91 µM) | 0.51 (≈ 1.06 µM) | 3.1 (≈ 6.44 µM) | 15 (≈ 31.2 µM) | 5.4 (≈ 11.2 µM) | 14 (≈ 29.1 µM) | 
5 | COc1cccc2c1C(=O)c1c(O)c3c(c(O)c1C2=O)C[C@@](O)(C(C)=O)C[C@@H]3O[C@H]1C[C@H](N)[C@H](O)[C@H](C)O1 [Daunomycin, reference compound] | 0.049 (≈ 0.0929 µM) | 0.036 (≈ 0.0682 µM) | 118 | 132 | 145 | 191 | 138 | 0.3 (≈ 0.569 µM) | 1.8 (≈ 3.41 µM) | 0.18 (≈ 0.341 µM) | 1.8 (≈ 3.41 µM) |  |  |  |  |  |  | Survival, in words (dead through toxicity) ([2]; 5 mg/kg/day): dead
6 | COc1cccc2c1C(=O)c1c(cc3c(c1O)[C@@H](O[C@H]1C[C@H](N)[C@H](O)[C@H](C)O1)C[C@](O)(C(=O)CO)C3)C2=O [11-Deoxy-adriamycin, reference compound] |  |  |  |  |  |  |  |  |  |  |  | 0.005 (≈ 0.00948 µM) |  |  |  |  |  | 
